Assay results from patent publication US11660303B2, “2-phenylimidazo[4,5-b]pyridin-7-amine derivates useful as inhibitors of mammalian tyrosine kinase ROR1 activity” (KANCERA AB, priority 2016, dated 2023).

Columns and labels:
Assay type in all cases: cell-based
HDLM2 = test: Flow cytometry Annexin V/PI apoptosis assay, HDLM2; details: Homo sapiens, HDLM-2, HDLM2, Hodgkin’s Lymphoma (HL), incubation 48 h
Method: (§1) Flow Cytometry Annexin V/PI Apoptosis Assay
(§2) An amount of 1 ml (10^5 cells/mL) of cells were seeded in each well of 6-well plates with and without compounds for 48 h. Cells were collected, washed with PBS, suspended in 100 μL of Annexin-V binding buffer (BD Biosciences) containing FITC-conjugated Annexin-V and PI (BD Biosciences) and incubated at room temperature in the dark for 20 min. After 20 min of incubation, 150 μL Annexin-V binding buffer was added. Viable cells were identified as the double negative Annexin-V and PI population. Samples were analyzed by a FACS Canto II Flow-cytometer (BD Biosciences).
(§3) Results, in terms of IC50 (μM), are shown in Table 4 for a representative compound of the invention, viz. Example 172.

MDA-MB-231 = test: MTT cytotoxicity assay, MDA-MB-231; details: Homo sapiens, MDA-MB-231, Triple negative breast cancer, incubation 48 h
Method: (§4) The MTT assay (Sigma-Aldrich) was used to measure cytotoxic capability of the ROR1 tyrosine kinase inhibitors (ROR1-TKI). Briefly, 2×10^4 cancer cells were incubated in triplicates in 200 μL of RPMI-1640 containing 10% FCS in 96 well plates. ROR1-TKI (dissolved in DMSO), were added to the cells. Cells treated with DMSO were used as negative control. Cells were incubated for 48, 72 or 96 h. An amount of 20 μL MTT solution was added and the cell suspension was incubated for 4 h at 37 degrees C. The reaction was stopped by adding 100 μL MTT solvent (10% SDS in 0.01 M HCl) and was incubated for further 2-4 h. The plate was then read by a microplate reader at 570 nm.
as §3

JeKo1 = test: MTT cytotoxicity assay, JeKo1; details: Homo sapiens, JeKo-1, JeKo1, Mantle Cell Lymphoma (MCL), incubation 96 h
Method: as §4, §3

H211 = test: Alamar Blue cell viability assay, H211; details: Homo sapiens, NCI-H211; H211, Small cell lung cancer, alamarBlue, incubation 72 h
Method: (§5) Alamar Blue Cell Viability Assay
(§6) Cells were plated 12 hours prior to start of drug treatment, which lasted for 72 hours for all cytotoxicity experiments. Cell viability was estimated by alamarBlue™ Cell Viability Reagent (ThermoFisher, Waltham, Mass.) per manufacturer's instructions.
as §3

H69 = test: Alamar Blue cell viability assay, H69; details: Homo sapiens, NCI-H69; H69, Small cell lung cancer (SCLC), alamarBlue, incubation 72 h
Method: as §5, §6, §3

SupB15 [1] = test: Flow cytometry Annexin V/PI apoptosis assay, SupB15; details: Homo sapiens, SUP-B15, SupB15, B-cell acute lymphoblastic leukemia (B-ALL), incubation 48 h
Method: as §1, §2, §3

Kelly = test: MTT cytotoxicity assay, Kelly; details: Neuroblastoma, incubation 48 h
Method: as §4, §3

Caov3 = test: Flow cytometry Annexin V/PI apoptosis assay, Caov3; details: Homo sapiens, Caov-3, Caov3, Ovarian cancer (OC), incubation 48 h
Method: as §1, §2, §3

KE37 [2] = test: MTT cytotoxicity assay, KE37; details: Homo sapiens, KE-37, KE37, T-cell acute lymphoblastic leukemia (T-ALL), incubation 48 h
Method: as §4, §3

SEM cells = test: Flow cytometry Annexin V/PI apoptosis assay, SEM; details: B-cell acute lymphoblastic leukemia (B-ALL), incubation 48 h
Method: as §1, §2, §3

H209 = test: Alamar Blue cell viability assay, H209; details: Homo sapiens, NCI-H209; H209, Small cell lung cancer, alamarBlue, incubation 72 h
Method: as §5, §6, §3

MIA PaCa-2 = test: MTT cytotoxicity assay, MIA PaCa-2; details: Homo sapiens, MIA PaCa-2, Pancreatic cancer, incubation 48 h
Method: as §4, §3

SupB15 [3] = test: MTT cytotoxicity assay, SupB15; details: Homo sapiens, SUP-B15, SupB15, B-cell acute lymphoblastic leukemia (B-ALL), incubation 48 h
Method: as §4, §3

MS = test: MTT cytotoxicity assay, MS; details: Diffuse large B-cell lymphoma (DLBCL), incubation 48 h
Method: as §4, §3

Mino = test: MTT cytotoxicity assay, Mino; details: Homo sapiens, Mantle Cell Lymphoma (MCL), incubation 96 h
Method: as §4, §3

Z138 = test: MTT cytotoxicity assay, Z138; details: Homo sapiens, Z-138, Z138, Mantle Cell Lymphoma (MCL), incubation 96 h
Method: as §4, §3

A549 = test: MTT cytotoxicity assay, A549; details: Homo sapiens, A549, Non-small cell lung cancer (NSCLC), incubation 72 h
Method: as §4, §3

HCC827 = test: MTT cytotoxicity assay, HCC827; details: Homo sapiens, HCC827, Non-small cell lung cancer, incubation 72 h
Method: as §4, §3

Reh [4] = test: Flow cytometry Annexin V/PI apoptosis assay, Reh; details: Homo sapiens, Non-T-cell non-B-cell-acute lymphoblastic leukemia, incubation 48 h
Method: as §1, §2, §3

KE37 [5] = test: Flow cytometry Annexin V/PI apoptosis assay, KE37; details: Homo sapiens, KE-37, KE37, T-cell acute lymphoblastic leukemia (T-ALL), incubation 48 h
Method: as §1, §2, §3

Reh [6] = test: MTT cytotoxicity assay, Reh; details: Homo sapiens, Non-T-cell non-B-cell-acute lymphoblastic leukemia, incubation 48 h
Method: as §4, §3

H82 = test: Alamar Blue cell viability assay, H82; details: Homo sapiens, NCI-H82; H82, Small cell lung cancer, alamarBlue, incubation 72 h
Method: as §5, §6, §3

SKOV3 [7] = test: MTT cytotoxicity assay, SKOV3; details: Homo sapiens, SK-OV-3, SKOV3, Ovarian cancer (OC), incubation 48 h
Method: as §4, §3

HPB = test: Flow cytometry Annexin V/PI apoptosis assay, HPB; details: T-cell acute lymphoblastic leukemia (T-ALL), incubation 48 h
Method: as §1, §2, §3

H1299 = test: MTT cytotoxicity assay, H1299; details: Homo sapiens, NCI-H1299, H1299, Non-small cell lung cancer, incubation 72 h
Method: as §4, §3

H1417 = test: Alamar Blue cell viability assay, H1417; details: Homo sapiens, NCI-H1417; H1417, Small cell lung cancer, alamarBlue, incubation 72 h
Method: as §5, §6, §3

SKOV3 [8] = test: Flow cytometry Annexin V/PI apoptosis assay, SKOV3; details: Homo sapiens, SK-OV-3, SKOV3, Ovarian cancer (OC), incubation 48 h
Method: as §1, §2, §3

H187 = test: Alamar Blue cell viability assay, H187; details: Homo sapiens, NCI-H187; H187, Small cell lung cancer, alamarBlue, incubation 72 h
Method: as §5, §6, §3

H1963 = test: Alamar Blue cell viability assay, H1963; details: Homo sapiens, NCI-H1963; H1963, Small cell lung cancer, alamarBlue, incubation 72 h
Method: as §5, §6, §3

IC50 (HDLM2): 0.1 µM | IC50 (H211): 0.18 µM | IC50 (SupB15 [1]): 0.066 µM | IC50 (Caov3): 0.27 µM | IC50 (SEM cells): 0.031 µM | IC50 (H209): 0.24 µM | IC50 (Reh [4]): 0.041 µM | IC50 (KE37 [5]): 0.18 µM | IC50 (HPB): 0.14 µM | IC50 (H1417): 0.54 µM | IC50 (SKOV3 [8]): 0.61 µM | IC50 (H187): 0.23 µM | IC50 (H1963): 0.2 µM
SMILES: CCOCCN1CCN(c2ccc(-c3nc4c(NC5CCN(CC)CC5)c(Br)cnc4[nH]3)cc2)CC1 [Example 172, 6-Bromo-2-{4-[4-(2-ethoxyethyl)piperazin-1-yl]phenyl}-N-(1-ethylpiperidin-4-yl)-3H-imidazo[4,5-b]pyridin-7-amine]
IC50 (MDA-MB-231): 0.15 µM | IC50 (JeKo1): 0.075 µM | IC50 (H69): 0.25 µM | IC50 (Kelly): 0.08 µM | IC50 (KE37 [2]): 0.2 µM | IC50 (MIA PaCa-2): 0.1 µM | IC50 (SupB15 [3]): 0.05 µM | IC50 (MS): 0.1 µM | IC50 (Mino): 0.05 µM | IC50 (Z138): 0.25 µM | IC50 (A549): 0.1 µM | IC50 (HCC827): 0.1 µM | IC50 (Reh [6]): 0.05 µM | IC50 (H82): 0.41 µM | IC50 (SKOV3 [7]): 0.25 µM | IC50 (H1299): 0.25 µM
